From patent US20130142882A1, “METHODS AND COMPOSITIONS FOR TREATMENT, MODIFICATION AND MANAGEMENT OF BONE CANCER PAIN” (GOLDEN BIOTECHNOLOGY CORPORATION, priority 2011, published 2013)
Several values for one entry are separate records, joined by “and”; a condition that tells them apart may be missing. Equal values may be shown once.

System: rat model of bone cancer pain (Walker 256 rat mammary gland carcinoma cells injected into the right tibia)
Experiment: Mechanical allodynia (Von Frey test) in a rat model of bone cancer pain
Type: in vivo, Rat (Sprague-Dawley)
Experimental: The objective of this study was to assess the potential anti-nociceptive and anti-tumourigenic effects of Compound 1, at doses of 15, 30 and 45 mg/kg, in an animal model of bone cancer pain. Metastasis of cancer cells to the bone was modeled by injecting Walker 256 rat mammary gland carcinoma cells into the medullary cavity of the right tibia (Mao-Yinga, et al. A rat model of bone cancer pain induced by intra-tibia inoculation of Walker 256 mammary gland carcinoma cells. Biochem Biophys Res Commun 2006; 345: 1292-1298). The development of mechanical allodynia was monitored using an established behavioural test (Von Frey test). Treatment administration was chronic, from the day of surgery, and administered twice daily for 21 days to determine whether there was a prophylactic effect on the development of mechanical allodynia. Zoledronic acid was used as a reference substance. No regulatory test guidelines were applicable to this study.
Rats have been studied in this model of bone cancer pain. The route of administration of Compound 1 and vehicle was oral. The doses of Compound 1 were 15, 30 and 45 mg/kg, twice a day (approximately 10 h apart) for 21 days.
The dose of zoledronic acid was 30 μg/kg, as a single administration, every second day from the day of surgery, based on historical data. The route of administration of zoledronic acid was subcutaneous.
The dose volume for test substance and vehicle treatments was 5 mL/kg. The vehicle for Compound 1 was corn oil. Each rat allocated to test substance or vehicle treatments received an oral dose, by gavage, twice daily (approximately 8 am and 6 pm) for 21 consecutive days. The dose volume for the reference substance treatment was 1 mL/kg. Each rat allocated to reference substance treatment received a single subcutaneous dose, by injection (approximately 8 am) every second day from the day of surgery.
Cell preparation. Walker 256 rat mammary gland carcinoma cells (obtained from the American Type Culture Collection (ATCC)) were harvested from sub-confluent cultures growing in vitro and the number of viable cells determined. Cells were then re-suspended in sterile phosphate buffered saline (PBS) at a concentration of 4×10^5 cells. Female Sprague-Dawley rats were intratibially injected in the right leg with 4×10^5 Walker 256 rat mammary gland carcinoma cells in a volume of 6 μL as detailed in Surgical procedure below.
Baseline behavioural testing. The rats were moved to the procedure room 5 days prior to behavioural testing. The rats were then housed, dosed and observed in the procedure room. The behavioural test was performed on all rats on 2 separate occasions prior to surgery, to establish baseline values. Pre-surgery baseline values were taken as the data from the final (second) day of testing (the data from the first day of testing was not included but classed as part of the acclimatisation).
Mechanical allodynia (Von Frey test): Each animal was placed in a wire mesh cage and a series of Von Frey filaments were applied to the plantar surface of the hind paw, from below. The filaments were applied in ascending order (starting with the weakest force), and the withdrawal threshold for both the left and right hind paws were evaluated. Each filament was indented on the mid-plantar surface of the foot to the point where it just started to bend; this was repeated approximately 8 to 10 times per filament at a frequency of approximately 1 Hz. The withdrawal threshold was defined as the lowest force of two or more consecutive Von Frey filaments to elicit a reflex withdrawal response (i.e. a brief paw flick).
Surgical procedure. The animals were surgically prepared over 2 days. Each rat was anaesthetised as necessary with isofluorane in […]. The surface around the incision site was shaved and sterilised. Under aseptic conditions, an incision was made in the skin over the top of the right tibia to expose the tibia head with minimal damage. […]

[1] = 30 mg/kg p.o. twice daily, Day 19, left paw
[2] = 30 mg/kg p.o. twice daily, Day 19, right paw
[3] = 30 mg/kg p.o. twice daily, Day 21, left paw
[4] = 30 mg/kg p.o. twice daily, Day 21, right paw
[5] = 30 mg/kg p.o. twice daily, Pre-Surgery, left paw
[6] = 30 mg/kg p.o. twice daily, Pre-Surgery, right paw
[7] = 45 mg/kg p.o. twice daily, Day 6, left paw
[8] = 45 mg/kg p.o. twice daily, Day 6, right paw
[9] = 45 mg/kg p.o. twice daily, Day 12, left paw
[10] = 45 mg/kg p.o. twice daily, Day 12, right paw
[11] = 45 mg/kg p.o. twice daily, Day 14, left paw
[12] = 45 mg/kg p.o. twice daily, Day 14, right paw
[13] = 45 mg/kg p.o. twice daily, Day 19, left paw
[14] = 45 mg/kg p.o. twice daily, Day 19, right paw
[15] = 45 mg/kg p.o. twice daily, Day 21, left paw
[16] = 45 mg/kg p.o. twice daily, Day 21, right paw
[17] = 45 mg/kg p.o. twice daily, Pre-Surgery, left paw
[18] = 45 mg/kg p.o. twice daily, Pre-Surgery, right paw

SMILES: COC1=C(OC)C(O)C(C/C=C(\C)CC/C=C(\C)CCC=C(C)C)C(C)C1=O (stereo not drawn) [Compound 1, 4-hydroxy-2,3-dimethoxy-6-methyl-5-(3,7,11-trimethyldodeca-2,6,10-trienyl)cyclohex-2-enone]
- Withdrawal Threshold (Log 10 (force (g) × 10 000)) on Day Post-Operative [1]: 5.12 Log 10 (force (g) × 10 000)
- Withdrawal threshold (g) on day post-operative [1]: 14.04 g
- Withdrawal Threshold (Log 10 (force (g) × 10 000)) on Day Post-Operative [2]: 4.91 Log 10 (force (g) × 10 000)
- Withdrawal threshold (g) on day post-operative [2]: 9.07 g
- Withdrawal Threshold (Log 10 (force (g) × 10 000)) on Day Post-Operative [3]: 5.05 Log 10 (force (g) × 10 000)
- Withdrawal threshold (g) on day post-operative [3]: 11.40 ± 0.81 g and 11.40 g
- Withdrawal Threshold (Log 10 (force (g) × 10 000)) on Day Post-Operative [4]: 4.82 Log 10 (force (g) × 10 000)
- Withdrawal threshold (g) on day post-operative [4]: 8.15 ± 1.43 g and 8.15 g
- Withdrawal Threshold (Log 10 (force (g) × 10 000)) on Day Post-Operative [5]: 5.33 Log 10 (force (g) × 10 000)
- Withdrawal threshold (g) on day post-operative [5]: 21.79 g
- Withdrawal Threshold (Log 10 (force (g) × 10 000)) on Day Post-Operative [6]: 5.33 Log 10 (force (g) × 10 000)
- Withdrawal threshold (g) on day post-operative [6]: 21.79 g
- Withdrawal Threshold (Log 10 (force (g) × 10 000)) on Day Post-Operative [7]: 5.35 Log 10 (force (g) × 10 000)
- Withdrawal threshold (g) on day post-operative [7]: 22.55 g
- Withdrawal Threshold (Log 10 (force (g) × 10 000)) on Day Post-Operative [8]: 5.35 Log 10 (force (g) × 10 000)
- Withdrawal threshold (g) on day post-operative [8]: 22.55 g
- Withdrawal Threshold (Log 10 (force (g) × 10 000)) on Day Post-Operative [9]: 5.31 Log 10 (force (g) × 10 000)
- Withdrawal threshold (g) on day post-operative [9]: 20.81 g
- Withdrawal Threshold (Log 10 (force (g) × 10 000)) on Day Post-Operative [10]: 5.16 Log 10 (force (g) × 10 000)
- Withdrawal threshold (g) on day post-operative [10]: 15.98 g
- Withdrawal Threshold (Log 10 (force (g) × 10 000)) on Day Post-Operative [11]: 5.35 Log 10 (force (g) × 10 000)
- Withdrawal threshold (g) on day post-operative [11]: 22.48 g
- Withdrawal Threshold (Log 10 (force (g) × 10 000)) on Day Post-Operative [12]: 5.30 Log 10 (force (g) × 10 000)
- Withdrawal threshold (g) on day post-operative [12]: 20.41 g
- Withdrawal Threshold (Log 10 (force (g) × 10 000)) on Day Post-Operative [13]: 5.29 Log 10 (force (g) × 10 000)
- Withdrawal threshold (g) on day post-operative [13]: 20.12 g
- Withdrawal Threshold (Log 10 (force (g) × 10 000)) on Day Post-Operative [14]: 5.24 Log 10 (force (g) × 10 000)
- Withdrawal threshold (g) on day post-operative [14]: 18.58 g
- Withdrawal Threshold (Log 10 (force (g) × 10 000)) on Day Post-Operative [15]: 5.29 Log 10 (force (g) × 10 000)
- Withdrawal threshold (g) on day post-operative [15]: 20.12 ± 1.67 g and 20.12 g
- Withdrawal Threshold (Log 10 (force (g) × 10 000)) on Day Post-Operative [16]: 5.25 Log 10 (force (g) × 10 000)
- Withdrawal threshold (g) on day post-operative [16]: 19.06 ± 2.17 g and 19.06 g
- Withdrawal Threshold (Log 10 (force (g) × 10 000)) on Day Post-Operative [17]: 5.33 Log 10 (force (g) × 10 000)
- Withdrawal threshold (g) on day post-operative [17]: 21.79 g
- Withdrawal Threshold (Log 10 (force (g) × 10 000)) on Day Post-Operative [18]: 5.33 Log 10 (force (g) × 10 000)
- Withdrawal threshold (g) on day post-operative [18]: 21.79 g
